The values that follow come from patent publication US8377967B2, “Piperidine derivative” (Nippon Zoki Pharmaceutical Co., Ltd., priority 2008, dated 2013).

The test system of experiment [1] is histamine-induced vascular hyperpermeability reaction. Description: Rat histamine-induced vascular hyperpermeability reaction (in vivo antihistamine action). Conditions: SD male rat, oral administration 1 hour before intracutaneous histamine, leaked Evans Blue pigment. As for the experimental part:
An SD male rat (SPF) of 180 g in weight was previously fed for one week or more by allowing the rat to take a solid feed and tap water ad libitum, under the environment setting of a temperature of 22° C., humidity of 55% and an artificial illumination of 12 hours a day (light phase 8 am to 8 pm), and the rat was fasted overnight to be used for the experiment. Histamine•dihydrochloride (hereinafter referred to as histamine) and Evans Blue were used by dissolving each in physiological saline upon use. A substance to be tested was dissolved in water for injection or suspended in 0.5% carboxymethyl cellulose sodium, and the rat was orally administered with the solution or suspension (dose volume: 5 mL/kg body weight). After 1 hour from the administration, the physiological saline and the histamine solution were each intracutaneously injected to two locations (20 μg/0.05 ml/location) each on a back part of the rat of which hair was sheared with an electric clipper while anesthetizing with an ether. A 0.5% Evans Blue-containing physiological saline was injected intravenously to the tail of the rat (1 mL/200 g body weight) immediately before the intracutaneous injection of the histamine.
After 30 minutes, the animal was decapitated, and allowed to bleed lethally, and the skin was removed to measure an amount of leaked pigment in the blue-stained portion. The measurement of the amount of leaked pigment was carried out as follows. Skins of the pigment leaking site were cut out at two locations, 1 mL of a 2 mol/L aqueous potassium hydroxide solution was added thereto in a test tube, and the test tube was allowed to stand overnight at 37° C. to dissolve. Thereafter, 6 mL of a 1:3 mixed solution of 0.67 mol/L phosphoric acid and acetone was added to the solution, and the mixture was vigorously shaken for 10 minutes. Thereafter, the mixture was filtered, and the absorbance of the filtrate at 620 nm was measured. The absorbance obtained from the two locations of the sites injected with physiological saline, as blank value, was used for a compensation. The amount of leaked pigment was calculated from the calibration curve of Evans Blue at 620 nm.

A further experiment concerns the target T1, cerebral H1 receptor (Mus musculus, UniProt P70174).
T1 construct: the entire brain, except for cerebellum and medulla oblongatae, was rapidly excised; from tissue; host or cells: brain homogenate (without cerebellum and medulla oblongata) of orally dosed ICR male mice
Description: Murine cerebral H1 receptor occupying content (ex vivo). In kind it is in vivo. The settings on record: for ED50: ICR male mouse, oral administration, brain excised after 1 hour, 3H-pyrilamine binding in brain homogenate, larger = lower brain transfer, read-out: ID50 (the source's name); for ID50 (mg/kg)/ ED50 (mg/kg): ID50 of cerebral receptor binding test (Table 20) divided by ED50 of vascular hyperpermeability test (Table 19). As for the experimental part: A 6-week-old ICR male mouse was previously fed for one week or more by allowing the mouse to take a solid feed and tap water ad libitum, under the environment setting of a temperature of 22° C., humidity of 55% and an artificial illumination of 12 hours a day, and the mouse was fasted overnight to be used for the experiment. A substance to be tested was dissolved with water for injection or suspended in 0.5% carboxymethyl cellulose solution, and the solution or suspension was orally administered to the mouse (dose volume: 0.1 mL/10 g body weight). After 1 hour from the oral administration, the mouse was decapitated, and the entire brain, except for cerebellum and medulla oblongatae, was rapidly excised. The excised brain tissue was homogenized with Polytron (manufactured by Kinematica) in an ice-cooled 50 mmol/L phosphate buffered saline (pH 7.4, 100 mg/1.9 mL).
To a test tube for reaction (TPX-Tube) were added 180 μL of the brain homogenate, and 10 μL of ^3H-pyrilamine solution (final concentration: 2 nmol/L) and 10 μL of a non-labeled pyrilamine solution (final concentration: 200 μmol/L) or a 50 mmol/L phosphate buffered saline, and the mixture was incubated at room temperature for 45 minutes, and 2.0 mL of an ice-cooled, 50 mmol/L phosphate buffered saline was then added thereto to stop the reaction. The reaction mixture was filtered with a GF/B filter (manufactured by […]), and the […] was placed in a vial and dried overnight at 60 degrees. After drying, 10 mL of a scintillator (AL-1, toluene-based, manufactured by DOJINDO LABORATORIES) was added to the product, and the disintegration per minute (dpm) was measured with a liquid scintillation counter (manufactured by Packard, U.S.A., TRI-CARB 2700TR) (5 minutes/vial).

Experiment [2] has as its target human histamine H1 receptor (Homo sapiens, UniProt P35367). Description: In vitro human histamine H1 receptor binding experiment ([3H]pyrilamine). The settings on record: HEK293A cells stably expressing human histamine H1 receptor, [3H]pyrilamine 3 nmol/L, room temperature 60 minutes. Summed up:
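HEK293A cells stably expressing human H1 receptor (3×10^5 cells/well) incubated 60 min at room temperature with test substance and 3 nmol/L [3H]pyrilamine in 50 mmol/L Tris-HCl pH 7.5, 0.1% BSA. Filtration and scintillation counting; nonspecific binding with 30 μmol/L pyrilamine.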

SMILES strings stand for the structures. Where only a bound is given, the exact number is not on record here.

Sequence of human histamine H1 receptor (P35367 whole entry): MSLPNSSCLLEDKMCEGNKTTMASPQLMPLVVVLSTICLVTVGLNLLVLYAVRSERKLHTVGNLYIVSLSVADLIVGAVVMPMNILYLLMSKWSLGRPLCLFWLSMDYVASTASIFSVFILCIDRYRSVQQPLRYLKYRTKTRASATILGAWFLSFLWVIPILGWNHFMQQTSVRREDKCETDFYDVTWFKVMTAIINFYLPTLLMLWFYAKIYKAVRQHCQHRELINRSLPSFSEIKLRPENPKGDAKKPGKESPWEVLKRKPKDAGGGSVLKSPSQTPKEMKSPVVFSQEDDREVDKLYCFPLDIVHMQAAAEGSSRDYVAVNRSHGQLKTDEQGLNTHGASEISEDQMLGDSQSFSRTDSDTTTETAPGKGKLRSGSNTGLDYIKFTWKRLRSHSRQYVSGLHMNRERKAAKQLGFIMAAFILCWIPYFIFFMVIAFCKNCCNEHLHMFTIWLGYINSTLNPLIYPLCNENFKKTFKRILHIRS
T1 sequence (P70174 whole entry): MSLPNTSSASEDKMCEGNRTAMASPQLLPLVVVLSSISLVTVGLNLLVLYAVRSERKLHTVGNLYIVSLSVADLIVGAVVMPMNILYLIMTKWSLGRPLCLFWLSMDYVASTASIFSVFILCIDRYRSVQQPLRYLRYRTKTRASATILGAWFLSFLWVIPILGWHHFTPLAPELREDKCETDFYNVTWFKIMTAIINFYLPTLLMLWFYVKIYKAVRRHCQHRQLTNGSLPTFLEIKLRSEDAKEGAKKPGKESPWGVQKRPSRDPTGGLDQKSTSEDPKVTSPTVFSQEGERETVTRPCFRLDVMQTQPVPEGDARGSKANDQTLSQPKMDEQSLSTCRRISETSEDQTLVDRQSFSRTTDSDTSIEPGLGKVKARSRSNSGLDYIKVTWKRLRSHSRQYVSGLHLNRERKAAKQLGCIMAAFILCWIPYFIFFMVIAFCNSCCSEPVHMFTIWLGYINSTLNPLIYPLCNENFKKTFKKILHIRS

The term IC50 denotes the concentration that inhibits the measured activity by half. Turning to `CCN1CCC(=C2c3cc(CC(=O)OC)ccc3OCc3ccsc32)CC1.Cl` [Compound 127, Methyl[4-(1-ethylpiperidin-4-ylidene)-4,10-dihydro-9-oxa-3-thiabenzo[f]azulen-6-yl]acetate hydrochloride], the ED50 in experiment [1] was ~0.1 mg/kg; at cerebral H1 receptor it was 9.84 mg/kg. In addition, the “ID50 (mg/kg)/ ED50 (mg/kg)” value on cerebral H1 receptor is on record as 98.4. The compound further yielded an IC50 in experiment [2] of 8.2 nM.

In experiment [1], `CCCN1CCC(=C2c3cc(CC(=O)OC)ccc3OCc3ccsc32)CC1.Cl` [Compound 129, Methyl[4-(1-propylpiperidin-4-ylidene)-4,10-dihydro-9-oxa-3-thiabenzo[f]azulen-6-yl]acetate hydrochloride] registered an ED50 of 0.088 mg/kg. At cerebral H1 receptor, the ED50 turned out to be 40.5 mg/kg and the “ID50 (mg/kg)/ ED50 (mg/kg)” value is on record as 460.2. The IC50 in experiment [2] stood at 22.7 nM.

With `CCCN1CCC(=C2c3cc(CC(=O)O)ccc3OCc3ccsc32)CC1` [Compound 130, [4-(1-Propylpiperidin-4-ylidene)-4,10-dihydro-9-oxa-3-thiabenzo[f]azulen-6-yl]acetic acid], the ED50 stood at 0.044 mg/kg in experiment [1] and 8 mg/kg on cerebral H1 receptor. Further, at cerebral H1 receptor, the “ID50 (mg/kg)/ ED50 (mg/kg)” value came to 181.8. Besides, the IC50 in experiment [2] was found to be 78.4 nM.

On to `COC(=O)Cc1ccc2c(c1)C(=C1CCN(C(C)C)CC1)c1sccc1CO2.Cl` [Compound 131, Methyl[4-(1-isopropylpiperidin-4-ylidene)-4,10-dihydro-9-oxa-3-thiabenzo[f]azulen-6-yl]acetate hydrochloride], for which the ED50 in experiment [1] is ~0.1 mg/kg. Further, on cerebral H1 receptor, the ED50 is 9.2 mg/kg and the “ID50 (mg/kg)/ ED50 (mg/kg)” value amounted to 92.0. This compound came in with an IC50 in experiment [2] of 32.3 nM.

In experiment [1], `COC(=O)Cc1ccc2c(c1)C(=C1CCN(CCCO)CC1)c1sccc1CO2.Cl` [Compound 138, Methyl {4-[1-(3-hydroxypropyl)piperidin-4-ylidene]-4,10-dihydro-9-oxa-3-thiabenzo[f]azulen-6-yl}acetate hydrochloride] displayed an ED50 of 0.47 mg/kg. In addition, at cerebral H1 receptor, the ED50 was 65.4 mg/kg and the “ID50 (mg/kg)/ ED50 (mg/kg)” value turned out to be 139.1. The same compound returned an IC50 in experiment [2] of 26 nM.

`CCOC(=O)Cc1ccc2c(c1)C(=C1CCN(C)CC1)c1sccc1CO2.Cl` [Compound 140, Ethyl[4-(1-methylpiperidin-4-ylidene)-4,10-dihydro-9-oxa-3-thiabenzo[f]azulen-6-yl]acetate hydrochloride]: in experiment [1], the ED50 is ~0.01 mg/kg. In addition, at cerebral H1 receptor, the ED50 was 3.5 mg/kg and the “ID50 (mg/kg)/ ED50 (mg/kg)” value stood at 350.0. The compound also showed an IC50 in experiment [2] of 10.1 nM.

As for `CCN1CCC(=C2c3cc(CCCC(=O)O)ccc3OCc3ccsc32)CC1` [Compound 142, 4-[4-(1-Ethylpiperidin-4-ylidene)-4,10-dihydro-9-oxa-3-thiabenzo[f]azulen-6-yl]butyric acid], the ED50 was ~0.3 mg/kg in experiment [1] and 11.9 mg/kg at cerebral H1 receptor. At cerebral H1 receptor, the “ID50 (mg/kg)/ ED50 (mg/kg)” value worked out at 39.7. Moreover, in experiment [2], the IC50 amounted to 90.9 nM.

`CCOC(=O)C=Cc1cc2c(s1)CCc1ccccc1C2=C1CCNCC1.Cl` [Compound 145, Ethyl 3-(4-piperidin-4-ylidene-9,10-dihydro-4H-1-thiabenzo[f]azulen-2-yl)acrylate hydrochloride] registered an ED50 in experiment [1] of 0.29 mg/kg. In addition, on cerebral H1 receptor, the ED50 was > 200 mg/kg and the “ID50 (mg/kg)/ ED50 (mg/kg)” value was >689.7. In experiment [2], this compound registered an IC50 of 68.6 nM.

Turning to `CN1CCC(=C2c3cc(CC(=O)O)ccc3CCc3sccc32)CC1` [Compound 151, [4-(1-Methylpiperidin-4-ylidene)-9,10-dihydro-4H-1-thiabenzo[f]azulen-6-yl]acetic acid], the ED50 in experiment [1] was < 0.1 mg/kg. Moreover, at cerebral H1 receptor, the ED50 was 6.36 mg/kg and the “ID50 (mg/kg)/ ED50 (mg/kg)” value is >63.6. In experiment [2], the IC50 was 93.6 nM.

With `COC(=O)COc1ccc2c(c1)C(=C1CCN(C)CC1)c1sccc1CO2.Cl` [Compound 165, Methyl[4-(1-methylpiperidin-4-ylidene)-4,10-dihydro-9-oxa-3-thiabenzo[f]azulen-6-yloxy]acetate hydrochloride], the results for the ED50 (in experiment [1]; on cerebral H1 receptor) were 0.107 mg/kg and 23 mg/kg, respectively. The “ID50 (mg/kg)/ ED50 (mg/kg)” value at cerebral H1 receptor turned out to be 215.0. In experiment [2], this compound yielded an IC50 of 11.8 nM.

Take `COC(=O)Cc1ccc2c(c1)C(=C1CCN(CCCC(C)=O)CC1)c1sccc1CO2.Cl` [Compound 169, Methyl {4-[1-(4-oxopentyl)piperidin-4-ylidene]-4,10-dihydro-9-oxa-3-thiabenzo[f]azulen-6-yl}acetate hydrochloride]: the ED50 in experiment [1] was 0.241 mg/kg; at cerebral H1 receptor it was 12.5 mg/kg. The “ID50 (mg/kg)/ ED50 (mg/kg)” value at cerebral H1 receptor amounted to 51.9. Moreover, the IC50 in experiment [2] came out at 8.32 nM.

`COC(=O)CSc1ccc2c(c1)C(=C1CCN(C)CC1)c1sccc1CO2.Cl` [Compound 171, Methyl[4-(1-methylpiperidin-4-ylidene)-4,10-dihydro-9-oxa-3-thiabenzo[f]azulen-6-ylsulfanyl]acetate hydrochloride] showed an ED50 in experiment [1] of 0.073 mg/kg. At cerebral H1 receptor, the ED50 stood at 29.6 mg/kg and the “ID50 (mg/kg)/ ED50 (mg/kg)” value was determined as 405.5. The same compound gave an IC50 in experiment [2] of 4.16 nM.

With `CN1CCC(=C2c3cc(SCC(=O)O)ccc3OCc3ccsc32)CC1` [Compound 172, [4-(1-Methylpiperidin-4-ylidene)-4,10-dihydro-9-oxa-3-thiabenzo[f]azulen-6-ylsulfanyl]acetic acid], in experiment [1], the ED50 worked out at 0.117 mg/kg. In addition, at cerebral H1 receptor, the ED50 came out at 28 mg/kg and the “ID50 (mg/kg)/ ED50 (mg/kg)” value is 239.3. Besides, the IC50 in experiment [2] is 22.2 nM.

Compound `CCOC(=O)CCN1CCC(=C2c3cc(CC(=O)OC)ccc3OCc3ccsc32)CC1.Cl` [Compound 173, Ethyl 3-[4-(6-methoxycarbonylmethyl-10H-9-oxa-3-thiabenzo[f]azulen-4-ylidene)piperidin-1-yl]propionate hydrochloride] yielded an ED50 in experiment [1] of 1.43 mg/kg. Moreover, at cerebral H1 receptor, the ED50 is 87.1 mg/kg and the “ID50 (mg/kg)/ ED50 (mg/kg)” value was determined as 60.9. For the same compound, the IC50 in experiment [2] was 1.26 nM.

Compound `COC(=O)Cc1ccc2c(c1)C(=C1CCN(CCNS(C)(=O)=O)CC1)c1sccc1CO2.Cl` [Compound 177, Methyl {4-[1-(2-methanesulfonylaminoethyl)piperidin-4-ylidene]-4,10-dihydro-9-oxa-3-thiabenzo[f]azulen-6-yl}acetate hydrochloride] showed an ED50 in experiment [1] of 0.302 mg/kg. In addition, at cerebral H1 receptor, the ED50 worked out at 125 mg/kg and the “ID50 (mg/kg)/ ED50 (mg/kg)” value was 412.6. For the same compound, in experiment [2], the IC50 is 7.12 nM.

As for `COC(=O)Cc1ccc2c(c1)C(=C1CCN(CCC(C)=O)CC1)c1sccc1CO2.Cl` [Compound 191, Methyl {4-[1-(3-oxobutyl)piperidin-4-ylidene]-4,10-dihydro-9-oxa-3-thiabenzo[f]azulen-6-yl}acetate hydrochloride], in experiment [1], the ED50 was 0.597 mg/kg. Also, on cerebral H1 receptor, the ED50 was found to be 79.2 mg/kg and the “ID50 (mg/kg)/ ED50 (mg/kg)” value was found to be 132.7. This compound also displayed an IC50 in experiment [2] of 4.72 nM.

In the case of `COC(=O)CSc1ccc2c(c1)C(=C1CCNCC1)c1sccc1CO2.Cl` [Compound 197, Methyl (4-piperidin-4-ylidene-4,10-dihydro-9-oxa-3-thiabenzo[f]azulen-6-ylsulfanyl)acetate hydrochloride], the ED50 is 0.19 mg/kg in experiment [1] and > 200 mg/kg on cerebral H1 receptor. The “ID50 (mg/kg)/ ED50 (mg/kg)” value on cerebral H1 receptor is listed as >1052.6. Besides, the IC50 in experiment [2] was 80.9 nM.
